Assay results from publication PMC5053573, “Structure-Based Design of Tetrahydroisoquinoline-7-carboxamides as Selective Discoidin Domain Receptor 1 (DDR1) Inhibitors” (Journal of Medicinal Chemistry, 2016).

Legend:
Assay in all cases: biochemical
Conditions in all cases: read-out: %Ctrl @ 1000nM
PDPK1 = PDPK1 (Homo sapiens, UniProt O15530)
RIOK3 = RIOK3 (Homo sapiens, UniProt O14730)
PLK1 = PLK1 (Homo sapiens, UniProt P53350)
EGFR(L858R,T790M) = EGFR(L858R,T790M) (Homo sapiens, UniProt P00533, L858R/T790M)
RET(V804M) = RET(V804M) (Homo sapiens, UniProt P07949, V804M)
Sequence of RET(V804M) (P07949 whole entry V804M): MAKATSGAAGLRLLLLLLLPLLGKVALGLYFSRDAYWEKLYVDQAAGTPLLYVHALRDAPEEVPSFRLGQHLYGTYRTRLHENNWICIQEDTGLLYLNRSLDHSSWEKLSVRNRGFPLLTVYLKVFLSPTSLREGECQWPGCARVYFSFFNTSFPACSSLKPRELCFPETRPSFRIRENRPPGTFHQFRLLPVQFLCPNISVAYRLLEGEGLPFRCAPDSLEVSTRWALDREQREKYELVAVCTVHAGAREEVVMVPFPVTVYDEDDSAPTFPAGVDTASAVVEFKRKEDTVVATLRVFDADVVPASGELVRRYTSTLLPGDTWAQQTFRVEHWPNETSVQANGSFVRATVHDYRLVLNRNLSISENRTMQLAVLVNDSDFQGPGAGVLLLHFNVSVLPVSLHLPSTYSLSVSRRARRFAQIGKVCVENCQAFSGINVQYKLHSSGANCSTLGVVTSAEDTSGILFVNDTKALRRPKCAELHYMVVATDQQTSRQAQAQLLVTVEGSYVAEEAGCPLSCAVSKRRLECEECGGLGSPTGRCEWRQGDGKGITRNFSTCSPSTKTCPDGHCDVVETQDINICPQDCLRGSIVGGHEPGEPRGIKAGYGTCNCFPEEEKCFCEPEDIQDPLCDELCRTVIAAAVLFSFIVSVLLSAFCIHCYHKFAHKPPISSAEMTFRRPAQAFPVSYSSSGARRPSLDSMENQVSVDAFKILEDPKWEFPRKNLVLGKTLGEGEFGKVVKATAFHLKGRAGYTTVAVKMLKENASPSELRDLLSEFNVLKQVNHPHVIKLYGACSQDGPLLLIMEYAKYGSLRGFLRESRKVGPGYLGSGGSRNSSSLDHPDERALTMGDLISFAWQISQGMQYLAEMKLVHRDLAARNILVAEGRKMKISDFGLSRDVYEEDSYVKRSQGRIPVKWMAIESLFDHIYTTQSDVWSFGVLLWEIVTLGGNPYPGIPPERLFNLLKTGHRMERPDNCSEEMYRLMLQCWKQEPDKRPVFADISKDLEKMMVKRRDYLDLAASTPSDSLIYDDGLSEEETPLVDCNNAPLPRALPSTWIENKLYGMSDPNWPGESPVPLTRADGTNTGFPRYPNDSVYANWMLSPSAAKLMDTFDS

PRP4 = biological target: T1, PRP4 (Homo sapiens, UniProt Q13523)
T1 construct: gene PRPF4B

FLT3(K663Q) = FLT3(K663Q) (Homo sapiens, UniProt P36888, K663Q)
ICK = biological target: T2, ICK (Homo sapiens, UniProt Q9UPZ9)
T2 construct: gene CILK1

NDR2 = biological target: T3, NDR2 (Homo sapiens, UniProt Q9Y2H1)
T3 construct: gene STK38L

CSNK1E = CSNK1E (Homo sapiens, UniProt P49674)
RIOK1 = RIOK1 (Homo sapiens, UniProt Q9BRS2)
[1] = biological target: JAK3(JH1domain-catalytic) (Homo sapiens, UniProt P52333)
Sequence of JAK3(JH1domain-catalytic) (P52333 whole entry): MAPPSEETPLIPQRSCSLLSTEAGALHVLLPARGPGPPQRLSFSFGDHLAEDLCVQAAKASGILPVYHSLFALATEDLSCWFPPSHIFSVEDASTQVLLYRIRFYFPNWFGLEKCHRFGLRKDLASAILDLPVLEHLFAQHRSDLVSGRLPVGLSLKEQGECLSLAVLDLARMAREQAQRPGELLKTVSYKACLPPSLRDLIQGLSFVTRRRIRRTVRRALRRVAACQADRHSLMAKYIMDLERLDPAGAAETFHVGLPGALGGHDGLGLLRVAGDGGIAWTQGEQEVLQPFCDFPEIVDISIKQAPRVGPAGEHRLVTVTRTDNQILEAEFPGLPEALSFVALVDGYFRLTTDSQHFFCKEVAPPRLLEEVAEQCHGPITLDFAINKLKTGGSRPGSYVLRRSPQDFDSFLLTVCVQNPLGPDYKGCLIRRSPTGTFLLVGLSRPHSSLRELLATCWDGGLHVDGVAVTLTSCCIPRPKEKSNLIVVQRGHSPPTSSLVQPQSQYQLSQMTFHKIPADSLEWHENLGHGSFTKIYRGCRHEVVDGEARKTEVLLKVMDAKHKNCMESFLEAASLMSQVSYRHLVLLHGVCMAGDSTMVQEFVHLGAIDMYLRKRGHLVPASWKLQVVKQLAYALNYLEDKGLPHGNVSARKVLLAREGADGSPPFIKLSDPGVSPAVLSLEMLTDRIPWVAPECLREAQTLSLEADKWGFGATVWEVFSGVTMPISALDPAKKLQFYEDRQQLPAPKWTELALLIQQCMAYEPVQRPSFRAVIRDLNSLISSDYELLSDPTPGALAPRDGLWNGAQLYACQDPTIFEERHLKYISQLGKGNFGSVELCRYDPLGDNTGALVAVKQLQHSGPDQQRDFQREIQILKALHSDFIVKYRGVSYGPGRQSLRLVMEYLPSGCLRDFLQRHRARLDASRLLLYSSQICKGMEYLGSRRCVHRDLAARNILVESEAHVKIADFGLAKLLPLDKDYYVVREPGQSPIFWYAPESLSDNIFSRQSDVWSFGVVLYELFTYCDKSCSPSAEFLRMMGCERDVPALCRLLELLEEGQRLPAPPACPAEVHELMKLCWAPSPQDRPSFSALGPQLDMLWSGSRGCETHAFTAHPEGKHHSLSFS

IKK-alpha = biological target: T4, IKK-alpha (Homo sapiens, UniProt O15111)
T4 construct: gene CHUK

CDC2L5 = biological target: T5, CDC2L5 (Homo sapiens, UniProt Q14004)
T5 construct: gene CDK13

MRCKA = biological target: T6, MRCKA (Homo sapiens, UniProt Q5VT25)
T6 construct: gene CDC42BPA

ACVR2A = ACVR2A (Homo sapiens, UniProt P27037)
S6K1 = biological target: T7, S6K1 (Homo sapiens, UniProt P23443)
T7 construct: gene RPS6KB1

[2] = biological target: RPS6KA5(Kin.Dom.2-C-terminal) (Homo sapiens, UniProt O75582)
Sequence of RPS6KA5(Kin.Dom.2-C-terminal) (O75582 whole entry): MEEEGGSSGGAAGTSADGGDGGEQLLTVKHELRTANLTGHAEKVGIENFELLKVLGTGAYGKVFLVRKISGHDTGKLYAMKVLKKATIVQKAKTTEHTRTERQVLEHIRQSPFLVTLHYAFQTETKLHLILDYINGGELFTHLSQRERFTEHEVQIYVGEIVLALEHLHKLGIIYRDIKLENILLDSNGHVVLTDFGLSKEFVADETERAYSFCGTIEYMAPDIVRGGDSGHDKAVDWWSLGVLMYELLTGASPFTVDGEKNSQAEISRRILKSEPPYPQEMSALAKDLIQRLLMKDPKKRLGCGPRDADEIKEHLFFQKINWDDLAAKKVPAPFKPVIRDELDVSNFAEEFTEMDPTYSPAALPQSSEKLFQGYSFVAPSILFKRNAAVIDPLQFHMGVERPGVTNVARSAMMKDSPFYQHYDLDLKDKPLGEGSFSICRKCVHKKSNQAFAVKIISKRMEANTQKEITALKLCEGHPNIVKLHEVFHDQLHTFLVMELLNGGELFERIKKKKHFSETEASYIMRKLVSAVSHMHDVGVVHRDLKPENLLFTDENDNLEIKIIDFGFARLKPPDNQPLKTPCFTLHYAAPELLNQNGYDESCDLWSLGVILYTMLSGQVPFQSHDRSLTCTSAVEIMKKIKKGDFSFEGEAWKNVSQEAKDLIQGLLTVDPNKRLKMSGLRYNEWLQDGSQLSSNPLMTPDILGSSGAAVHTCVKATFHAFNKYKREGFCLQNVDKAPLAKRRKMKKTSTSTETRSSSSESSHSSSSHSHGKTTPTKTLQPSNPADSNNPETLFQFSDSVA

FLT3-autoinhibited = FLT3-autoinhibited (Homo sapiens, UniProt P36888)
NLK = NLK (Homo sapiens, UniProt Q9UBE8)
FRK = FRK (Homo sapiens, UniProt P42685)
[3] = biological target: ABL1(F317I)-nonphosphorylated (Homo sapiens, UniProt P00519, F317I)
PRKD1 = PRKD1 (Homo sapiens, UniProt Q15139)
PDGFRA = PDGFRA (Homo sapiens, UniProt P16234)
[4] = biological target: ABL1(E255K)-phosphorylated (Homo sapiens, UniProt P00519, E255K)
TLK2 = TLK2 (Homo sapiens, UniProt Q86UE8)
PAK1 = PAK1 (Homo sapiens, UniProt Q13153)
[5] = biological target: ABL1(Q252H)-phosphorylated (Homo sapiens, UniProt P00519, Q252H)
CAMK1G = CAMK1G (Homo sapiens, UniProt Q96NX5)
Sequence of CAMK1G (Q96NX5 whole entry): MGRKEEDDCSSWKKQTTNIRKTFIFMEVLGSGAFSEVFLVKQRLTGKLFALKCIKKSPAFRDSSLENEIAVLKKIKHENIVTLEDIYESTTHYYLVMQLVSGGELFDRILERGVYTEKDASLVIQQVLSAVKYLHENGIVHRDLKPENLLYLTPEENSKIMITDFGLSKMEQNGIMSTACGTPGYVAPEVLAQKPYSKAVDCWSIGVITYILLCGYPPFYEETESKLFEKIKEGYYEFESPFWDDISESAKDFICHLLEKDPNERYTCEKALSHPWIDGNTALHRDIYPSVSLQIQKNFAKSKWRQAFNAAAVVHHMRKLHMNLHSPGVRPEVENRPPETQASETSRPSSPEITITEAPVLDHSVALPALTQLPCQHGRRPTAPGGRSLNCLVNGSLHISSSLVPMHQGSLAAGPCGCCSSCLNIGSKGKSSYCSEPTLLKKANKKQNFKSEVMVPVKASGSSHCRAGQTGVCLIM

ASK1 = biological target: T8, ASK1 (Homo sapiens, UniProt Q99683)
T8 construct: gene MAP3K5

ROCK1 = ROCK1 (Homo sapiens, UniProt Q13464)
PLK3 = PLK3 (Homo sapiens, UniProt Q9H4B4)
Sequence of PLK3 (Q9H4B4 whole entry): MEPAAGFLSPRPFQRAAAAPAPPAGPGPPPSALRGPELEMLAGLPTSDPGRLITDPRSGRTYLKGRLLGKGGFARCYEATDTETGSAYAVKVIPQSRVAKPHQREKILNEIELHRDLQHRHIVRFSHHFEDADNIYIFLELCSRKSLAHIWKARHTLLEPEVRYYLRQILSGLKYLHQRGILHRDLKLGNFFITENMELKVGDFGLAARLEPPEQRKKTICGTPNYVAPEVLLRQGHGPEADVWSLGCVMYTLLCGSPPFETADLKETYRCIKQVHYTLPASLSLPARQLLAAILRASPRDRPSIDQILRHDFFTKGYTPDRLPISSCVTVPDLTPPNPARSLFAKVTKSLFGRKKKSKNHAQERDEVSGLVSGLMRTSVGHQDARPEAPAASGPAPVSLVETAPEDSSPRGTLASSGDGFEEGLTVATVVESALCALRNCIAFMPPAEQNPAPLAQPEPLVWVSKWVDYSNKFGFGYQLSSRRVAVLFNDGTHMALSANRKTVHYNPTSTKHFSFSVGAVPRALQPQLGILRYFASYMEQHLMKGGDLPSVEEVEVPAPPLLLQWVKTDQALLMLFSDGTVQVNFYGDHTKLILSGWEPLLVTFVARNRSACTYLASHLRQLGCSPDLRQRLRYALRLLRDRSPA

ABL1-nonphosphorylated = ABL1-nonphosphorylated (Homo sapiens, UniProt P00519)
PRKG2 = PRKG2 (Homo sapiens, UniProt Q13237)
NEK2 = NEK2 (Homo sapiens, UniProt P51955)

Sequence of RIOK3 (O14730 whole entry): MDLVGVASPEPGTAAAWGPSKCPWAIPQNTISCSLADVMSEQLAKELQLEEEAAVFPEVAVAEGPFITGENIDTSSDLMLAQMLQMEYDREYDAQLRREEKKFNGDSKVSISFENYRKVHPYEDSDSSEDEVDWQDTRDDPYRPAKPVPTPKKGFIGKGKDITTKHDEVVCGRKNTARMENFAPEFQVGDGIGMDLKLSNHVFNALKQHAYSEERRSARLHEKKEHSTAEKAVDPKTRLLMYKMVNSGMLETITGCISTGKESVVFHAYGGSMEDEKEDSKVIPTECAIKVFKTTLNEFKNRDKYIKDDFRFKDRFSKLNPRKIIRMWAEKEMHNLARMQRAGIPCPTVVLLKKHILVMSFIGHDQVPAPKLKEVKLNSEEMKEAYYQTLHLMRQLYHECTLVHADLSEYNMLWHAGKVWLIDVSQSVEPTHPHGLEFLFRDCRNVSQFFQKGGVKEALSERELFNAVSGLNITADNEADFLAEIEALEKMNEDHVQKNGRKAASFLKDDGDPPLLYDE

**Q.** `Cc1cn(-c2cc(NC(=O)c3ccc4c(c3)CN(c3cncnc3)C[C@@H]4C)cc(C(F)(F)F)c2)cn1` [Compound 6j] was tested. Which remaining activity at 1 µM (PDPK1) did it give?
**A.** Its remaining activity at 1 µM is 84%.

**Q.** What about the remaining activity at 1 µM (RIOK3) of the same molecule?
**A.** Its remaining activity at 1 µM is 100%.

**Q.** And the remaining activity at 1 µM (PLK1)?
**A.** Its remaining activity at 1 µM is 97%.

**Q.** What about the remaining activity at 1 µM (EGFR(L858R,T790M)) of the same molecule?
**A.** Its remaining activity at 1 µM is 100%.

**Q.** And the remaining activity at 1 µM (RET(V804M))?
**A.** Its remaining activity at 1 µM is 100%.

**Q.** And the remaining activity at 1 µM (PRP4)?
**A.** The remaining activity at 1 µM was 100%.

**Q.** What about the remaining activity at 1 µM (FLT3(K663Q)) of the same molecule?
**A.** Its remaining activity at 1 µM is 62%.

**Q.** What about the remaining activity at 1 µM (ICK) of the same molecule?
**A.** Its remaining activity at 1 µM is 100%.

**Q.** What about the remaining activity at 1 µM (NDR2) of the same molecule?
**A.** Its remaining activity at 1 µM is 100%.

**Q.** And the remaining activity at 1 µM (CSNK1E)?
**A.** Its remaining activity at 1 µM is 86%.

**Q.** And the remaining activity at 1 µM (RIOK1)?
**A.** The remaining activity at 1 µM was 100%.

**Q.** And the remaining activity at 1 µM [1]?
**A.** Its remaining activity at 1 µM is 100%.

**Q.** And the remaining activity at 1 µM (IKK-alpha)?
**A.** The remaining activity at 1 µM was 100%.

**Q.** What about the remaining activity at 1 µM (CDC2L5) of the same molecule?
**A.** The remaining activity at 1 µM was 100%.

**Q.** And the remaining activity at 1 µM (MRCKA)?
**A.** Its remaining activity at 1 µM is 93%.

**Q.** And the remaining activity at 1 µM (ACVR2A)?
**A.** Its remaining activity at 1 µM is 98%.

**Q.** What about the remaining activity at 1 µM (S6K1) of the same molecule?
**A.** The remaining activity at 1 µM was 100%.

**Q.** What about the remaining activity at 1 µM [2] of the same molecule?
**A.** Its remaining activity at 1 µM is 100%.

**Q.** What about the remaining activity at 1 µM (FLT3-autoinhibited) of the same molecule?
**A.** The remaining activity at 1 µM was 100%.

**Q.** What about the remaining activity at 1 µM (NLK) of the same molecule?
**A.** The remaining activity at 1 µM was 61%.

**Q.** What about the remaining activity at 1 µM (FRK) of the same molecule?
**A.** Its remaining activity at 1 µM is 63%.

**Q.** What about the remaining activity at 1 µM [3] of the same molecule?
**A.** The remaining activity at 1 µM was 80%.

**Q.** What about the remaining activity at 1 µM (PRKD1) of the same molecule?
**A.** Its remaining activity at 1 µM is 95%.

**Q.** And the remaining activity at 1 µM (PDGFRA)?
**A.** Its remaining activity at 1 µM is 100%.

**Q.** What about the remaining activity at 1 µM [4] of the same molecule?
**A.** The remaining activity at 1 µM was 56%.

**Q.** What about the remaining activity at 1 µM (TLK2) of the same molecule?
**A.** Its remaining activity at 1 µM is 98%.

**Q.** And the remaining activity at 1 µM (PAK1)?
**A.** Its remaining activity at 1 µM is 84%.

**Q.** What about the remaining activity at 1 µM [5] of the same molecule?
**A.** Its remaining activity at 1 µM is 95%.

**Q.** What about the remaining activity at 1 µM (CAMK1G) of the same molecule?
**A.** Its remaining activity at 1 µM is 84%.

**Q.** What about the remaining activity at 1 µM (ASK1) of the same molecule?
**A.** The remaining activity at 1 µM was 92%.

**Q.** And the remaining activity at 1 µM (ROCK1)?
**A.** Its remaining activity at 1 µM is 100%.

**Q.** And the remaining activity at 1 µM (PLK3)?
**A.** The remaining activity at 1 µM was 100%.

**Q.** What about the remaining activity at 1 µM (ABL1-nonphosphorylated) of the same molecule?
**A.** Its remaining activity at 1 µM is 13%.

**Q.** And the remaining activity at 1 µM (PRKG2)?
**A.** The remaining activity at 1 µM was 98%.

**Q.** What about the remaining activity at 1 µM (NEK2) of the same molecule?
**A.** Its remaining activity at 1 µM is 95%.
